Measured values as given in ChEMBL document CHEMBL1145147, “Cytotoxic neolignans: an SAR study” (Bioorg Med Chem Lett, 2005).

system: HepG2; assay: Cytotoxicity of compound against human liver tumor cell line (Hep-G2) was determined; format: functional, cell-based

Point of comparison: `CCCc1ccc(O)c(-c2cc(CCC)ccc2O)c1`, IC50 23.4 µM. Against it:
- C/C=C/c1ccc(O)c(-c2cc(/C=C/C)ccc2O)c1 — 1.6-fold higher, 38 µM
- CCCc1ccc(O)c(-c2ccc(O)c(CCC)c2)c1 — 1.8-fold lower, 13.1 µM
- C=CCc1ccc(OC)c(-c2cc(CC=C)ccc2OC)c1 — higher, > 200 µM
- C=CCc1ccc(Oc2cc(CC=C)ccc2O)cc1 [ISOMAGNOLOL] — 2.2-fold higher, 51.8 µM
- C=CCc1ccc(O)cc1 [CHAVICOL] — higher, > 200 µM
- C=CCc1cccc(-c2cccc(CC=C)c2O)c1O — 1.8-fold higher, 42.1 µM
- Oc1ccccc1-c1ccccc1O — higher, > 200 µM
- C=CCc1cc(O)c(O)c(-c2cc(CC=C)cc(O)c2O)c1 — 4.4-fold higher, 104 µM
- C=CCc1cc(OC)c(O)c(-c2cc(CC=C)cc(OC)c2O)c1 — 5-fold higher, 117 µM
- C=CCc1ccc(O)c(-c2cc(CC=C)ccc2O)c1 [MAGNOLOL] — within 1.5-fold, 32 µM
- C=CCc1ccc(O)c(-c2ccc(O)c(CC=C)c2)c1 [HONOKIOL] — within 1.5-fold, 16.5 µM
